Reference: PubChem BioAssay AID248 (DTP/NCI, 2004)
Where “and” joins values, the source holds several entries; their conditions need not be identical. Equal values may be shown once. Toxic doses and inconclusive results are not listed. No stated cut-off is given here; in the data, active means T/C of 150% or more; inactive means T/C below 125%. Square brackets hold non-standard residues; d marks the D form. Peptide text beside a SMILES is read from it. * marks the point of attachment. ξ: configuration not given here. Tos = Cc1ccc(S(=O)(=O)*)cc1; ξY = NC(Cc1ccc(O)cc1)C(=O)O

Tested on: L1210 leukemia ip in BDF1 mice, survival T/C
Assay: NCI In Vivo Anticancer Drug Screen. Data for tumor model L1210 Leukemia (intraperitoneal) in B6D2F1 (BDF1) mice
Conditions: endpoint: mean survival time, higher = longer survival
Method in brief: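 In this screen, tumor-bearing mice given compound are compared to those given vehicle, and their survival values are reported as a treated-to-control quotient.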

[1] = dose: 400.0 mg/kg/injection, schedule: Q04DX003 (ip), vehicle: Klucel (hydroxypropylcellulose) (HPC)
[2] = dose: 100.0 mg/kg/injection, schedule: Q01DX001 (ip), vehicle: carboxymethylcellulose (CMC)
[3] = dose: 200.0 mg/kg/injection, schedule: Q01DX001 (ip), vehicle: carboxymethylcellulose (CMC)
[4] = dose: 400.0 mg/kg/injection, schedule: Q01DX001 (ip), vehicle: carboxymethylcellulose (CMC)
[5] = dose: 100.0 mg/kg/injection, schedule: Q04DX003 (ip), vehicle: saline with Tween-80
[6] = dose: 200.0 mg/kg/injection, schedule: Q04DX003 (ip), vehicle: saline with Tween-80
[7] = dose: 400.0 mg/kg/injection, schedule: Q04DX003 (ip), vehicle: saline with Tween-80

Measured: T/C

CC(C)(CC(=O)O)CC(=O)OCC(=O)[C@@]1(O)CC[C@H]2[C@@H]3CCC4=CC(=O)C=C[C@]4(C)[C@H]3[C@@H](O)C[C@@]21C
inactive: dose: 20.0 mg/kg/injection, schedule: Q01DX009 (ip), vehicle: steriod suspending solution 103 % of control | dose: 40.0 mg/kg/injection, schedule: Q01DX009 (ip), vehicle: steriod suspending solution 103 % of control | dose: 50.0 mg/kg/injection, schedule: Q01DX001 (sc), vehicle: steriod suspending solution 102 % of control | dose: 80.0 mg/kg/injection, schedule: Q01DX009 (ip), vehicle: steriod suspending solution 111 % of control | dose: 100.0 mg/kg/injection, schedule: Q01DX001 (sc), vehicle: steriod suspending solution 100 % of control | dose: 100.0 mg/kg/injection, schedule: Q01DX009 (sc), vehicle: steriod suspending solution 93 % of control | dose: 100.0 mg/kg/injection, schedule: Q04DX003 (sc), vehicle: steriod suspending solution 98 % of control | dose: 200.0 mg/kg/injection, schedule: Q01DX001 (sc), vehicle: steriod suspending solution 113 % of control | dose: 200.0 mg/kg/injection, schedule: Q01DX009 (sc), vehicle: steriod suspending solution 104 % of control and 118 % of control | dose: 200.0 mg/kg/injection, schedule: Q04DX003 (sc), vehicle: steriod suspending solution 110 % of control | dose: 400.0 mg/kg/injection, schedule: Q01DX001 (sc), vehicle: steriod suspending solution 107 % of control | dose: 400.0 mg/kg/injection, schedule: Q01DX009 (sc), vehicle: steriod suspending solution 102 % of control and 124 % of control | dose: 400.0 mg/kg/injection, schedule: Q04DX003 (sc), vehicle: steriod suspending solution 104 % of control

CCCCC(=O)N(C(C)C)C(C)C
inactive: dose: 50.0 mg/kg/injection, schedule: Q01DX009 (ip), vehicle: carboxymethylcellulose (CMC) 94 % of control and 103 % of control | dose: 100.0 mg/kg/injection, schedule: Q01DX009 (ip), vehicle: carboxymethylcellulose (CMC) 97 % of control and 102 % of control | dose: 100.0 mg/kg/injection, schedule: Q04DX002 (ip), vehicle: carboxymethylcellulose (CMC) 95 % of control and 98 % of control | dose: 200.0 mg/kg/injection, schedule: Q04DX002 (ip), vehicle: carboxymethylcellulose (CMC) 95 % of control

CCC(CC)=NNS(=O)(=O)c1ccccc1
inactive: dose: 75.0 mg/kg/injection, schedule: Q01DX001 (ip), vehicle: saline 100 % of control | dose: 150.0 mg/kg/injection, schedule: Q01DX001 (ip), vehicle: saline 100 % of control | dose: 300.0 mg/kg/injection, schedule: Q01DX001 (ip), vehicle: saline 102 % of control

CCCCCCCCCCC(=O)OCC#CC#CCOC(=O)CCCCCCCCCC
inactive: dose: 100.0 mg/kg/injection, schedule: Q01DX009 (ip), vehicle: Klucel (hydroxypropylcellulose) (HPC) 97 % of control | dose: 100.0 mg/kg/injection, schedule: Q04DX003 (ip), vehicle: Klucel (hydroxypropylcellulose) (HPC) 103 % of control | dose: 200.0 mg/kg/injection, schedule: Q01DX009 (ip), vehicle: Klucel (hydroxypropylcellulose) (HPC) 98 % of control | dose: 200.0 mg/kg/injection, schedule: Q04DX003 (ip), vehicle: Klucel (hydroxypropylcellulose) (HPC) 92 % of control | dose: 400.0 mg/kg/injection, schedule: Q01DX009 (ip), vehicle: Klucel (hydroxypropylcellulose) (HPC) 101 % of control | [1] 91 % of control

Cc1ccccc1S(=O)(=O)CC(Cl)c1ccccc1 (stereo unspecified)
inactive: dose: 100.0 mg/kg/injection, schedule: Q01DX001 (ip), vehicle: saline 102 % of control | dose: 100.0 mg/kg/injection, schedule: Q01DX009 (ip), vehicle: saline 93 % of control | dose: 200.0 mg/kg/injection, schedule: Q01DX001 (ip), vehicle: saline 102 % of control | dose: 200.0 mg/kg/injection, schedule: Q01DX009 (ip), vehicle: saline 91 % of control | dose: 400.0 mg/kg/injection, schedule: Q01DX001 (ip), vehicle: saline 107 % of control | dose: 400.0 mg/kg/injection, schedule: Q01DX009 (ip), vehicle: saline 91 % of control

NC(=O)NC(=O)C(Cl)c1ccccc1 (stereo unspecified)
inactive: dose: 50.0 mg/kg/injection, schedule: Q01DX001 (ip), vehicle: carboxymethylcellulose (CMC) 103 % of control | [2] 97 % of control | [3] 103 % of control | [4] 101 % of control

Cc1cnccc1N=Nc1ccc(N(C)C)cc1
inactive: [5] 104 % of control | [6] 104 % of control | [7] 101 % of control

Cc1ccc(S(=O)(=O)NCC(=O)NC(Cc2ccc(O)cc2)C(=O)O)cc1 (stereo not drawn) (Tos-Gly-[ξY]-OH)
inactive: dose: 100.0 mg/kg/injection, schedule: Q01DX009 (ip), vehicle: other 105 % of control | dose: 200.0 mg/kg/injection, schedule: Q01DX009 (ip), vehicle: other 102 % of control | dose: 400.0 mg/kg/injection, schedule: Q01DX009 (ip), vehicle: other 104 % of control

COc1nc(Br)ccc1/C=N\NC(N)=S
inactive: dose: 10.0 mg/kg/injection, schedule: Q04DX003 (ip), vehicle: Klucel (hydroxypropylcellulose) (HPC) 101 % of control | dose: 20.0 mg/kg/injection, schedule: Q04DX003 (ip), vehicle: Klucel (hydroxypropylcellulose) (HPC) 95 % of control | [1] 98 % of control

O=C(NNS(=O)(=O)c1ccc([N+](=O)[O-])cc1)c1ccccc1
inactive: [2] 105 % of control | [3] 102 % of control | [4] 100 % of control

O=C(Oc1ccc([N+](=O)[O-])cc1)c1ccccc1S(=O)OCCc1ccccc1 (stereo unspecified)
inactive: dose: 100.0 mg/kg/injection, schedule: Q01DX001 (ip), vehicle: other 92 % of control | dose: 200.0 mg/kg/injection, schedule: Q01DX001 (ip), vehicle: other 95 % of control

O=C(Nc1cccc([N+](=O)[O-])c1)c1ccc(Cl)cc1Cl
inactive: [5] 102 % of control | [6] 93 % of control | [7] 98 % of control

COC(=O)/C=C/c1c[nH]c2nccnc12
inactive: dose: 100.0 mg/kg/injection, schedule: Q01DX009 (ip), vehicle: water 98 % of control | dose: 100.0 mg/kg/injection, schedule: Q04DX003 (ip), vehicle: water 101 % of control | dose: 200.0 mg/kg/injection, schedule: Q01DX009 (ip), vehicle: water 95 % of control | dose: 200.0 mg/kg/injection, schedule: Q04DX003 (ip), vehicle: water 98 % of control | dose: 400.0 mg/kg/injection, schedule: Q01DX009 (ip), vehicle: water 97 % of control | dose: 400.0 mg/kg/injection, schedule: Q04DX003 (ip), vehicle: water 102 % of control

Cc1cc(C(=O)O)c(C(=O)O)c(Cl)n1
inactive: dose: 75.0 mg/kg/injection, schedule: Q01DX001 (ip), vehicle: other 90 % of control | dose: 150.0 mg/kg/injection, schedule: Q01DX001 (ip), vehicle: other 95 % of control | dose: 300.0 mg/kg/injection, schedule: Q01DX001 (ip), vehicle: other 91 % of control

c1cc(C2CCCCC2)ccc1-c1ccc(C2CCCCC2)cc1
inactive: dose: 100.0 mg/kg/injection, schedule: Q01DX009 (ip), vehicle: saline with Tween-80 94 % of control | [5] 98 % of control | dose: 200.0 mg/kg/injection, schedule: Q01DX009 (ip), vehicle: saline with Tween-80 94 % of control | [6] 101 % of control | dose: 400.0 mg/kg/injection, schedule: Q01DX009 (ip), vehicle: saline with Tween-80 97 % of control | [7] 90 % of control

O=C1c2cc([N+](=O)[O-])ccc2CCC1C(O)(C(F)(F)F)C(F)(F)F (stereo unspecified)
inactive: dose: 100.0 mg/kg/injection, schedule: Q01DX001 (ip), vehicle: saline with Tween-80 100 % of control | dose: 200.0 mg/kg/injection, schedule: Q01DX001 (ip), vehicle: saline with Tween-80 102 % of control | dose: 400.0 mg/kg/injection, schedule: Q01DX001 (ip), vehicle: saline with Tween-80 100 % of control
